Series [1] concerns the target T1, ERK2 (Homo sapiens, UniProt P28482).
T1 construct: purchased R&D 1230-KS-010
The experiment in a line: ERK2 enzyme activity test (ADP-Glo Kinase Assay). The format is biochemical. Particulars: chemiluminescence. The protocol:
The purpose of this experiment is to detect the inhibitory ability of the compounds on the ERK2 enzyme activity and evaluate the activity of the compounds in vitro according to IC50. The ADP-Glo™ Kinase Assay Kit was used in this experiment. Under the action of enzyme, the substrate was phosphorylated and ADP was produced at the same time. The ADP-Glo Reagent was added to remove unreacted ATP in the reaction system. The kinase detection reagent was used to detect the ADP produced by the reaction. In the presence of the compound, the inhibition rate of the compound was calculated by measuring the signal value.
Enzyme and substrate preparation: ERK2 (1230-KS-010, R&D) and substrate (Custom peptides, Gill Biochemical) were prepared to be 0.75 ng/μl and 1500 μM in the buffer (40 mM Tris, 20 mM MgCl2, 0.1 mg/mL BSA, 50 μM DTT). The enzyme solution and substrate solution were then prepared into a mixed solution at a volume ratio of 2:1 for later use. ATP was diluted to 500 μM with the buffer. The compounds were dissolved in DMSO (dimethyl sulfoxide, Shanghai Titan Scientific Co., Ltd.) to prepare a stock solution with an initial concentration of 20 mM, and then Bravo was used to prepare solutions of the compounds. Finally, a 3 μL of a mixed solution of enzyme and substrate, and 1 μL of different concentrations of the compound (the initial concentration is 50 μM, 4-fold dilution) were added to each well of the 384-well plate, and the plate was incubated at 30° C. for 10 minutes, and finally 1 μL of 500 μM ATP solution was added to each well, and the plate was incubated at 30° C. for 2 hours. Then 5 μL of ADP-Glo was added, and the plate was incubated at 30° C. for 40 minutes. Then 10 μL of Kinase detection buffer was added, and the plate was incubated at 30° C. for 40 minutes. The 384-well plate was taken out and placed in a microplate reader (BMG labtech, PHERAstar FS), and the chemiluminescence was measured by the microplate reader.
(§1) The data were processed and analyzed with Microsoft Excel, Graphpad Prism 5.
A general note: ADP-Glo first removes unused ATP, then detects ADP through luciferase.

In series [2] the test system is Colo205 cells. The experiment in a line: In vitro proliferation inhibition test on Colo205 tumor cells (CellTiter-Glo). The format is cell-based. Particulars: Homo sapiens, COLO 205, 72 h; Colo205 cell proliferation, 3 days of culture, CTG. The protocol:
The purpose of this experiment is to test the inhibitory activity of the compounds on the proliferation of Colo205 cells (CCL-222, ATCC) in vitro. The cells were treated with different concentrations of compounds in vitro. After 3 days of culture, the cell proliferation was detected using CTG (CellTiter-Glo® Luminescent Cell Viability Assay, Promega, catalog number: G7573) reagent. The in vitro activity of the compounds was evaluated according to the IC50 value.
In the following, taking the in vitro proliferation inhibition test method of Colo205 cells as an example, the method in the present disclosure for testing the in vitro proliferation inhibitory activity of the compounds of the present disclosure is described. This method is also applicable to, but not limited to, the in vitro proliferation inhibitory activity test on other tumor cells.
Colo205 cells were digested, centrifuged and then resuspended. The single cell suspension was mixed well, and the density of viable cells was adjusted to 5.0×10^4 cells/ml with cell culture medium (RPMI1640+2% FBS), and 95 μl/well was added to a 96-well cell culture plate. Only 100 μl medium was added to the peripheral wells of the 96-well plate. The culture plate was incubated in an incubator for 24 hours (37° C., 5% CO2).
The compound was dissolved in DMSO (dimethyl sulfoxide, Shanghai Titan Scientific Co., Ltd.) and prepared into a stock solution with an initial concentration of 20 mM. The initial concentration of the small molecule compound is 2 mM, and then 4-fold diluted into to 9 points, and the tenth point is DMSO. Another 96-well plate was taken, 90 μl of cell culture medium (RPMI1640+2% FBS) was added to each well, then 10 μl of different concentrations of the test sample was added to each well, the mixture was mixed well, and then 5 μl of different concentrations of the test sample was added to the cell culture plate, and each sample has two duplicate holes. The culture plate was incubated in the incubator for 3 days (37° C., 5% CO2). The 96-well cell culture plate was taken out, 50 μl CTG solution was added to each well, and the plate was incubated for 10 minutes at room temperature. In a microplate reader (BMG labtech, PHERAstar FS), chemiluminescence was measured with the microplate reader.
as §1

Series [3] can be described thus: Pharmacokinetics assay in mice. The format is in vivo. Particulars: mouse, po, C57 mice (female), intragastric, 2 mg/kg, plasma; for Vd/F: read-out: Apparent distribution volume Vz/F; for AUC: read-out: Area under curve AUC; for CL/F: read-out: Clearance CLz/F; for half-life: read-out: Half Life T1/2 (converted); for Cmax: read-out: Plasma Concentration Cmax; for MRT: read-out: Residence Time MRT. Here is the method: Mice were used as the test animal. The drug concentration in plasma at different time points was determined by LC/MS/MS method after administration of compound 3-P2, compound 4-P2, compound 9-P2, compound 10-P2, compound 12 and compound 15. The pharmacokinetic behavior of the compounds of the present disclosure in mice was studied, and the pharmacokinetic characteristics were evaluated.
54 of C57 mice (female) were equally divided into 6 groups, which were purchased from Shanghai Jiesijie Laboratory Animal Co., Ltd., with the animal production license number: SOCK (Shanghai) 2013-0006.
A certain amount of compound was weighted, followed by the addition of 5% volume of DMSO and 5% Tween 80 to dissolve it, then followed by the addition of 90% normal saline to prepare a colorless and clear solution of 0.1 mg/mL.
After an overnight fast, C57 mice were intragastrically administered the test compound at an administration dose of 2 mg/kg and an administration volume of 0.2 ml/10 g.
The mice were intragastrically administered the test compounds. 0.1mL of blood was taken before the administration and at 0.25, 0.5, 1.0, 2.0, 4.0, 6.0, 8.0, 11.0, 24.0 hours after the administration. The blood was placed in a heparinized test tube, and centrifuged at 3500 rpm for 10 minutes. The plasma was separated and stored at −20° C.
The content of the test compound in the plasma of mice after […] administration of the test compound at different concentrations was determined: 25 μl of mouse plasma at each time point after the administration was taken, followed by the addition of 50 μl of the internal standard camptothecin solution (100 ng/mL) and 200 μl of acetonitrile. The resulting solution was vortex-mixed for 5 minutes, and centrifuged for 10 minutes (4000 rpm). 4μl of the supernatant was taken from the plasma samples for LC/MS/MS analysis.

T1 sequence (P28482 whole entry): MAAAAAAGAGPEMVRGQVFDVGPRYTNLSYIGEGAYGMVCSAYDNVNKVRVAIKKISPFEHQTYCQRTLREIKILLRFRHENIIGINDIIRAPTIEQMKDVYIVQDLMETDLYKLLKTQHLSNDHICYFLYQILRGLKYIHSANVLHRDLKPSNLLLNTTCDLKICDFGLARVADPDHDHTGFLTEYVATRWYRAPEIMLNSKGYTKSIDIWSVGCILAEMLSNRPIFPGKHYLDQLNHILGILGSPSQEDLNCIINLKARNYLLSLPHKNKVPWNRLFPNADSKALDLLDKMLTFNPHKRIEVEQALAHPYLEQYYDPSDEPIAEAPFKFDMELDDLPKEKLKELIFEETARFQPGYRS

Consider `O=C(CN1CCc2sc(-c3nc(NC4CCOCC4)ncc3Cl)cc2C1=O)N[C@H](CO)c1cccc(Cl)c1` [Example 1, (S)-2-(2-(5-Chloro-2-((tetrahydro-2H-pyran-4-yl)amino)pyrimidin-4-yl)-4-oxo-6,7-dihydrothieno[3,2-c]pyridin-5(4H)-yl)-N-(1-(3-chlorophenyl)-2-hydroxyethyl)acetamide], for which the IC50 (as a rule, the point on the concentration scale where inhibition reaches its midpoint) is 1 nM in series [1] and 8 nM in series [2].
The compound `CC1(C)c2sc(-c3nc(NC4CCOCC4)ncc3Cl)cc2C(=O)N1CC(=O)N[C@H](CO)c1cccc(Cl)c1` [Example 2, (S)-2-(2-(5-Chloro-2-((tetrahydro-2H-pyran-4-yl)amino)pyrimidin-4-yl)-6,6-dimethyl-4-oxo-4,6-dihydro-5H-thieno[2,3-c]pyrrol-5-yl)-N-(1-(3-chlorophenyl)-2-hydroxyethyl)acetamide] showed an IC50 in series [1] of 3 nM.
Consider `Cc1cccc([C@@H](CO)NC(=O)[C@H](C)N2CCc3sc(-c4nc(NC5CCOCC5)ncc4Cl)cc3C2=O)c1` [Example 3-P1, (S)-2-(2-(5-Chloro-2-((tetrahydro-2H-pyran-4-yl)amino)pyrimidin-4-yl)-4-oxo-6,7-dihydrothieno[3,2-c]pyridin-5(4H)-yl)-N-((S)-2-hydroxy-1-(m-methylphenyl)ethyl)propionamide], for which the IC50 in series [1] came out at 203 nM.
Turning to `Cc1cccc([C@@H](CO)NC(=O)[C@@H](C)N2CCc3sc(-c4nc(NC5CCOCC5)ncc4Cl)cc3C2=O)c1` [Example 3-P2, (R)-2-(2-(5-Chloro-2-((tetrahydro-2H-pyran-4-yl)amino)pyrimidin-4-yl)-4-oxo-6,7-dihydrothieno[3,2-c]pyridin-5(4H)-yl)-N-((S)-2-hydroxy-1-(m-methylphenyl)ethyl)propionamide], half-maximal inhibition in series [1] (IC50) required 4 nM. In series [2], this compound yielded an IC50 of 26 nM. For the same compound, in series [3], the Vd/F came to 2.98 L/kg; the AUC (as a rule, concentration integrated over time) worked out at 914 ng·h/mL; the CL/F was 36.5 mL/min/kg; the half-life was 0.945 h. Further, in series [3], the Cmax was determined as 708 ng/mL and the MRT (in general, a mean duration of stay, worked out from the concentration-time curve) was 1.16 h.
For `C[C@@H](C(=O)N[C@H](CO)c1cccc(Cl)c1)N1CCc2sc(-c3nc(NC4CCOCC4)ncc3Cl)cc2C1=O` [Example 4-P1, (S)-2-(2-(5-Chloro-2-((tetrahydro-2H-pyran-4-yl)amino)pyrimidin-4-yl)-4-oxo-6,7-di hydrothieno[3,2-c]pyridin-5(4H)-yl)-N-((S)-1-(3-chlorophenyl)-2-hydroxyethyl)propionamide], in series [1], the IC50 came out at 434 nM.
In series [1], `C[C@H](C(=O)N[C@H](CO)c1cccc(Cl)c1)N1CCc2sc(-c3nc(NC4CCOCC4)ncc3Cl)cc2C1=O` [Example 4-P2] came in with an IC50 of 6 nM. This compound also returned an IC50 in series [2] of 29 nM. Moreover, in series [3], the Vd/F amounted to 8.09 L/kg, the AUC was found to be 364 ng·h/mL, the CL/F worked out at 91.5 mL/min/kg and the half-life is 1.02 h. Further, in series [3], the Cmax worked out at 376 ng/mL and the MRT was found to be 1.14 h.
In series [1], `CC(C(=O)N[C@H](CO)c1cccc(Cl)c1)N1C(=O)c2cc(-c3nc(NC4CCOCC4)ncc3Cl)sc2C1(C)C` (stereo partly drawn) [Example 5, 2-(2-(5-Chloro-2-((tetrahydro-2H-pyran-4-yl)amino)pyrimidin-4-yl)-6,6-dimethyl-4-oxo-4,6-dihydro-5H-thieno[2,3-c]pyrrol-5-yl)-N-((S)-1-(3-chlorophenyl)-2-hydroxyethyl)propionamide] displayed an IC50 of 22 nM. In other words, the double-digit nanomolar range.
Regarding `O=C(CN1CCc2sc(-c3ccnc(NC4CCOCC4)n3)cc2C1=O)N[C@H](CO)c1cccc(Cl)c1` [Example 6, (S)-N-(1-(3-Chlorophenyl)-2-hydroxyethyl)-2-(4-oxo-2-(2-((tetrahydro-2H-pyran-4-yl)amino)pyrimidin-4-yl)-6,7-dihydrothieno[3,2-c]pyridin-5(4H)-yl)acetamide], in series [1], it took 29 nM to reach half-maximal inhibition (IC50).
`Cc1cccc([C@@H](CO)NC(=O)CN2CCc3sc(-c4nc(Nc5ccnn5C)ncc4C)cc3C2=O)c1` [Example 7, (S)-N-(2-Hydroxy-1-(m-methylphenyl)ethyl)-2-(2-(5-methyl-2-((1-methyl-1H-pyrazol-5-yl)amino)pyrimidin-4-yl)-4-oxo-6,7-dihydrothieno[3,2-c]pyridin-5(4H)-yl)acetamide]: the IC50 was 3 nM in series [1] and 38 nM in series [2].
In series [1], `COc1cc(F)cc([C@@H](CO)NC(=O)[C@H](C)N2CCc3sc(-c4nc(NC5CCOCC5)ncc4Cl)cc3C2=O)c1` [Example 9-P1, (S)-2-(2-(5-Chloro-2-((tetrahydro-2H-pyran-4-yl)amino)pyrimidin-4-yl)-4-oxo-6,7-dihydrothieno[3,2-c]pyridin-5(4H)-yl)-N-((S)-1-(3-fluoro-5-methoxyphenyl)-2-hydroxyethyl)prop ionamide] showed an IC50 of 410 nM.
Regarding `Cc1cccc([C@@H](CO)NC(=O)[C@@H](C)N2CCc3sc(-c4nc(N[C@@H](C)CO)ncc4Cl)cc3C2=O)c1` [Example 13, (R)-2-(2-(5-Chloro-2-(((S)-1-hydroxypropan-2-yl)amino)pyrimidin-4-yl)-4-oxo-6,7-dihydrothieno[3,2-c]pyridin-5(4H)-yl)-N-((S)-2-hydroxy-1-(m-methylphenyl)ethyl)propionamide], the values for the IC50 in series [1] and in series [2] were 9 nM and 26 nM, respectively.
